Laboratory results published in patent publication US10450316B2, “Certain protein kinase inhibitor” (Chongqing Fochon Pharmaceutical Co., Ltd., priority 2015, dated 2019).
pIC50: −log10 of the molar value.

System: BE(2)-C cell
Experiment: Cell proliferation assay (MTS) in BE(2)-C cells
Assay type: cell-based
Conditions: Homo sapiens, inhibition of BE(2)-C cell proliferation, 48 h
Description: MTS testing kit was purchased from Promega. The DMEM, Fetal bovine serum and Penicillin-Streptomycin were purchased from Gibco. Dimethyl sulfoxide (DMSO) was purchased from Sigma.
To investigate whether a compound is able to inhibit the activity of CDK4/6 in cells, mechanism-based assays using BE(2)-C cell (ATCC® number:CRL-2268) were developed. In the assay, inhibition of CDK4/6 was detected by the inhibition of BE(2)-C cell cells proliferation. BE(2)-C cell cells were cultured in culture flasks to 40-80% confluence in DMEM plus 10% fetal bovine serum. Cells were collected and plated onto 96-well plates at cell density of 3000 cells/well. Plates were incubated overnight at 37° C., with 5% CO2 to adhere. Compounds were added to the plates, the final compound concentrations were 10000, 3333, 1111, […], 123.5, 41.2, 13.7, 4.6 and 1.5 nM. Place plates at 37° C., with 5% CO2 for 48 h. After removing the medium, 20 μl MTS/100 μl medium mixture solution were added to each well and incubate the plates for exactly 2 hours. The reaction was terminated by adding 25 μl 10% SDS per well. Measure absorbance at 490 nm and 650 nm (reference wavelength). IC50 was calculated using GraphPad Prism 5.0.
Select compounds prepared as described above were assayed according to the biological procedures described herein. “++++” stands for IC50 value below about 10 nM. “+++” stands for IC50 value between greater than about 10 nM to about 100 nM. “++” stands for IC50 value between greater than about 100 nM to about […]. “+” stands for IC50 value greater than 1 μM.

SMILES: CCN1C2CCC1CN(Cc1ccc(Nc3ncc(F)c(-c4cc(F)c5nc6n(c5c4)C(C)(C)CC6)n3)nc1)C2 [Example 131, N-(5-((8-ethyl-3,8-diazabicyclo[3.2.1]octan-3-yl)methyl)pyridin-2-yl)-5-fluoro-4-(5-fluoro-1,1-dimethyl-2,3-dihydro-1H-benzo[d]pyrrolo[1,2-a]imidazol-7-yl)pyrimidin-2-amine]
- pIC50: 7.00 to 8.00

SMILES: CN1CC2CCC(C1)N2Cc1ccc(Nc2ncc(F)c(-c3cc(F)c4nc5n(c4c3)C(C)(C)CC5)n2)nc1 [Example 127, 5-fluoro-4-(5-fluoro-1,1-dimethyl-2,3-dihydro-1H-benzo[d]pyrrolo[1,2-a]imidazol-7-yl)-N-(5-((3-methyl-3,8-diazabicyclo[3.2.1]octan-8-yl)methyl)pyridin-2-yl)pyrimidin-2-amine]
- pIC50: > 8.00

SMILES: CN1CC2CCC(C1)N2Cc1ccc(Nc2cc(-c3cnc4nc5n(c4c3)C(C)(C)CC5)c(F)cn2)nc1 [Example 168, 4-(6,6-dimethyl-7,8-dihydro-6H-pyrrolo[1′,2′:1,2]imidazo[4,5-b]pyridin-3-yl)-5-fluoro-N-(5-((3-methyl-3,8-diazabicyclo[3.2.1]octan-8-yl)methyl)pyridin-2-yl)pyridin-2-amine]
- pIC50: < 7.00

SMILES: CN1CC2(C1)CN(Cc1ccc(Nc3ncc(F)c(-c4cc(F)c5nc6n(c5c4)[C@H](C(F)(F)F)CC6)n3)nc1)C2 [Example 68, (S)-5-fluoro-4-(5-fluoro-1-(trifluoromethyl)-2,3-dihydro-1H-benzo[d]pyrrolo[1,2-a]imidazol-7-yl)-N-(5-((6-methyl-2,6-diazaspiro[3.3]heptan-2-yl)methyl)pyridin-2-yl)pyrimidin-2-amine]
- pIC50: 7.00 to 8.00

SMILES: CN1CC2CN(Cc3ccc(Nc4ncc(F)c(-c5cc(F)c6nc7n(c6c5)[C@H](CF)CC7)n4)nc3)CC2C1 (stereo partly drawn) [Example 27, 5-fluoro-4-((S)-5-fluoro-1-(fluoromethyl)-2,3-dihydro-1H-benzo[d]pyrrolo[1,2-a]imidazol-7-yl)-N-(5-((5-methylhexahydropyrrolo[3,4-c]pyrrol-2(1H)-yl)methyl)pyridin-2-yl)pyrimidin-2-amine]
- pIC50: 7.00 to 8.00

SMILES: CN1CC2(CCN(Cc3ccc(Nc4ncc(F)c(-c5cc(F)c6nc7n(c6c5)C(C)(C)CC7)n4)nc3)CC2)C1 [Example 115, 5-fluoro-4-(5-fluoro-1,1-dimethyl-2,3-dihydro-1H-benzo[d]pyrrolo[1,2-a]imidazol-7-yl)-N-(5-((2-methyl-2,7-diazaspiro[3.5]nonan-7-yl)methyl)pyridin-2-yl)pyrimidin-2-amine]
- pIC50: 7.00 to 8.00

SMILES: CCN1CC2CN(Cc3ccc(Nc4ncc(F)c(-c5cc(F)c6nc7n(c6c5)C5(CC7)CC5)n4)nc3)CC21 (stereo not shown) [Example 143, N-(5-((6-ethyl-3,6-diazabicyclo[3.2.0]heptan-3-yl)methyl)pyridin-2-yl)-5-fluoro-4-(5-fluoro-2,3-dihydrospiro[benzo[d]pyrrolo[1,2-a]imidazole-1,1′-cyclopropan]-7-yl)pyrimidin-2-amine]
- pIC50: < 6.00

SMILES: FC[C@@H]1CCc2nc3c(F)cc(-c4nc(Nc5ccc(CN6CC7(CNC7)C6)cn5)ncc4F)cc3n21 [Example 23, (S)-N-(5-((2,6-diazaspiro[3.3]heptan-2-yl)methyl)pyridin-2-yl)-5-fluoro-4-(5-fluoro-1-(fluoromethyl)-2,3-dihydro-1H-benzo[d]pyrrolo[1,2-a]imidazol-7-yl)pyrimidin-2-amine]
- pIC50: < 6.00

SMILES: CN1CCC2(CC1)CCN(Cc1ccc(Nc3ncc(F)c(-c4cc(F)c5nc6n(c5c4)[C@H](CF)CC6)n3)nc1)CC2 [Example 30, (S)-5-fluoro-4-(5-fluoro-1-(fluoromethyl)-2,3-dihydro-1H-benzo[d]pyrrolo[1,2-a]imidazol-7-yl)-N-(5-((9-methyl-3,9-diazaspiro[5.5]undecan-3-yl)methyl)pyridin-2-yl)pyrimidin-2-amine]
- pIC50: < 7.00

SMILES: Fc1cnc(Nc2ccc(CN3CC4CCC(C3)N4)cn2)nc1-c1cc(F)c2nc3n(c2c1)[C@H](C(F)(F)F)CC3 [Example 79, N-(5-((3,8-diazabicyclo[3.2.1]octan-3-yl)methyl)pyridin-2-yl)-5-fluoro-4-((S)-5-fluoro-1-(trifluoro-methyl)-2,3-dihydro-1H-benzo[d]pyrrolo[1,2-a]imidazol-7-yl)pyrimidin-2-amine]
- pIC50: 7.00 to 8.00

SMILES: CC1(C)CCc2nc3c(F)cc(-c4nc(Nc5ccc(CN6CCC7(CC6)CNC7)cn5)ncc4F)cc3n21 [Example 114, N-(5-((2,7-diazaspiro[3.5]nonan-7-yl)methyl)pyridin-2-yl)-5-fluoro-4-(5-fluoro-1,1-dimethyl-2,3-dihydro-1H-benzo[d]pyrrolo[1,2-a]imidazol-7-yl)pyrimidin-2-amine]
- pIC50: < 7.00

SMILES: Fc1cnc(Nc2ccc(CN3CC4CCC(C3)N4)cn2)nc1-c1cc(F)c2nc3n(c2c1)[C@H](C(F)F)CC3 [Example 57, N-(5-((3,8-diazabicyclo[3.2.1]octan-3-yl)methyl)pyridin-2-yl)-4-((S)-1-(difluoromethyl)-5-fluoro-2,3-dihydro-1H-benzo[d]pyrrolo[1,2-a]imidazol-7-yl)-5-fluoropyrimidin-2-amine]
- pIC50: < 7.00

SMILES: CCN1CC2CCC(C1)N2Cc1ccc(Nc2ncc(F)c(-c3cc(F)c4nc5n(c4c3)[C@H](CF)CC5)n2)nc1 [Example 34, N-(5-((3-ethyl-3,8-diazabicyclo[3.2.1]octan-8-yl)methyl)pyridin-2-yl)-5-fluoro-4-((S)-5-fluoro-1-(fluoromethyl)-2,3-dihydro-1H-benzo[d]pyrrolo[1,2-a]imidazol-7-yl)pyrimidin-2-amine]
- pIC50: 7.00 to 8.00

SMILES: CN1CC2CN(Cc3ccc(Nc4ncc(F)c(-c5cc(F)c6nc7n(c6c5)C5(CC7)CC5)n4)nc3)CC21 (stereo not shown) [Example 142, 5-fluoro-4-(5-fluoro-2,3-dihydrospiro[benzo[d]pyrrolo[1,2-a]imidazole-1,1′-cyclopropan]-7-yl)-N-(5-((6-methyl-3,6-diazabicyclo[3.2.0]heptan-3-yl)methyl)pyridin-2-yl)pyrimidin-2-amine]
- pIC50: < 6.00

SMILES: CCN1CC2CCC(C1)N2Cc1ccc(Nc2ncc(F)c(-c3cc(F)c4nc5n(c4c3)C(C)(C)CC5)n2)nc1 [Example 128, N-(5-((3-ethyl-3,8-diazabicyclo[3.2.1]octan-8-yl)methyl)pyridin-2-yl)-5-fluoro-4-(5-fluoro-1,1-dimethyl-2,3-dihydro-1H-benzo[d]pyrrolo[1,2-a]imidazol-7-yl)pyrimidin-2-amine]
- pIC50: > 8.00

SMILES: CCN1CCC2(CC1)CN(Cc1ccc(Nc3ncc(F)c(-c4cc(F)c5nc6n(c5c4)[C@H](CF)CC6)n3)nc1)C2 [Example 22, (S)-N-(5-((7-ethyl-2,7-diazaspiro[3.5]nonan-2-yl)methyl)pyridin-2-yl)-5-fluoro-4-(5-fluoro-1-(fluoromethyl)-2,3-dihydro-1H-benzo[d]pyrrolo[1,2-a]imidazol-7-yl)pyrimidin-2-amine]
- pIC50: < 7.00

SMILES: CCN1CC2CN(Cc3ccc(Nc4ncc(F)c(-c5cc(F)c6nc7n(c6c5)C(C)(C)CC7)n4)nc3)CC2C1 (stereo not shown) [Example 125, N-(5-((5-ethylhexahydropyrrolo[3,4-c]pyrrol-2(1H)-yl)methyl)pyridin-2-yl)-5-fluoro-4-(5-fluoro-1,1-dimethyl-2,3-dihydro-1H-benzo[d]pyrrolo[1,2-a]imidazol-7-yl)pyrimidin-2-amine]
- pIC50: 7.00 to 8.00

SMILES: CC1(C)CCc2nc3c(F)cc(-c4nc(Nc5ccc(CN6C7CCC6CNC7)cn5)ncc4F)cc3n21 [Example 126, N-(5-((3,8-diazabicyclo[3.2.1]octan-8-yl)methyl)pyridin-2-yl)-5-fluoro-4-(5-fluoro-1,1-dimethyl-2,3-dihydro-1H-benzo[d]pyrrolo[1,2-a]imidazol-7-yl)pyrimidin-2-amine]
- pIC50: 7.00 to 8.00

SMILES: CN1C2CCC1CN(Cc1ccc(Nc3ncc(F)c(-c4cc(F)c5nc6n(c5c4)[C@H](C(F)F)CC6)n3)nc1)C2 [Example 58, 4-((S)-1-(difluoromethyl)-5-fluoro-2,3-dihydro-1H-benzo[d]pyrrolo[1,2-a]imidazol-7-yl)-5-fluoro-N-(5-((8-methyl-3,8-diazabicyclo[3.2.1]octan-3-yl)methyl)pyridin-2-yl)pyrimidin-2-amine]
- pIC50: 7.00 to 8.00

SMILES: Fc1cnc(Nc2ccc(CN3CCN4CCC[C@H]4C3)cn2)nc1-c1cc(F)c2nc3n(c2c1)C1(CC3)CC1 [Example 144, (S)-5-fluoro-4-(5-fluoro-2,3-dihydrospiro[benzo [d]pyrrolo[1,2-a]imidazole-1,1′-cyclopropan]-7-yl)-N-(5-((hexahydropyrrolo[1,2-a]pyrazin-2(1H)-yl)methyl)pyridin-2-yl)pyrimidin-2-amine]
- pIC50: 7.00 to 8.00

SMILES: OC[C@@H]1CCc2nc3c(F)cc(-c4nc(Nc5ccc(CN6CCNCC6)cn5)ncc4F)cc3n21 [Example 1, (S)-(5-fluoro-7-(5-fluoro-2-((5-(piperazin-1-ylmethyl)pyridin-2-yl)amino)pyrimidin-4-yl)-2,3-dihydro-1H-benzo[d]pyrrolo[1,2-a]imidazol-1-yl)methanol]
- pIC50: < 6.00

SMILES: CCN1CC2CN(Cc3ccc(Nc4ncc(F)c(-c5cc(F)c6nc7n(c6c5)[C@H](CF)CC7)n4)nc3)CC2C1 (stereo partly drawn) [Example 28, N-(5-((5-ethylhexahydropyrrolo[3,4-c]pyrrol-2(1H)-yl)methyl)pyridin-2-yl)-5-fluoro-4-((S)-5-fluoro-1-(fluoromethyl)-2,3-dihydro-1H-benzo[d]pyrrolo[1,2-a]imidazol-7-yl)pyrimidin-2-amine]
- pIC50: 7.00 to 8.00
